Experimental findings from patent US9233951B2, “Heterocyclic compounds as pesticides” (Bayer Intellectual Property GmbH, priority 2010, dated 2016) are described below.

Molecules are shown by their SMILES. Like-named read-outs stand apart in the source and are kept apart here.

A short description of one data set: physchem. It is filed as physicochemical. Here is the method: 1 Method Description for Determination of the logP values and Mass Detection
Eluents for determination in the acidic range (pH 3.4): • Eluent A: acetonitrile+1 ml formic acid/l.
The λmax values were determined in the maxima of the chromatographic signals using the UV spectra from 200 nm to 400 nm. The mass was detected (M^+, m/z) by means of an Agilent MSD mass spectrometer.

In data set [1] the test system is green peach aphid (Myzus persicae). The data set is described as follows: Myzus persicae test (spray treatment). It is filed as in vivo. Particulars: foliar, 144 h, application rate 500 g/ha, Chinese cabbage leaf discs sprayed, after 6 days, 100% = all aphids killed, read-out: efficacy in %. Here is the method:
Myzus persicae Test (Spray Treatment)
• Solvent: 78 parts by weight of acetone • 1.5 parts by weight of dimethylformamide • Emulsifier: 0.5 part by weight of alkylaryl polyglycol ether
To prepare an appropriate active ingredient preparation, 1 part by weight of active ingredient is mixed with the stated amounts of solvent and emulsifier, and the concentrate is diluted with emulsifier-containing water to the desired concentration. Discs of Chinese cabbage (Brassica pekinensis) infested by all stages of the green peach aphid (Myzus persicae) are sprayed with an active ingredient preparation of the desired concentration.
After 6 days, the efficacy in % is determined. 100% means that all of the aphids have been killed; 0% means that none of the aphids have been killed.

[2] abbreviates: reverse-phase HPLC column (C 18), pH 3.4, HPLC-MS value printed in the preparation example text, acidic range pH 3.4, read-out: logP (HCOOH).
Where [3] appears, read: reverse-phase HPLC column (C 18), pH 3.4, HPLC, reverse-phase C 18, acidic range pH 3.4, 55° C., table of compounds, read-out: logP (HCO2H).

In the case of `O=C(O)C1CN=C(c2cccnc2)S1` (racemic) [(R,S)-4,5-Dihydro-2-(3-pyridinyl)-1,3-thiazole-5-carboxylic acid], the chromatographic logP in “physchem” (pH 3.4, HPLC-MS value printed in the preparation example text, acidic range pH 3.4, read-out: logP (HCOOH)) worked out at 0.75.
For the molecule `O=C(O)C1CN=C(c2cncnc2)S1` (racemic) [(R,S)-4,5-Dihydro-2-(5-pyrimidinyl)-1,3-thiazole-5-carboxylic acid], in “physchem” (setting [2]), the chromatographic logP worked out at 0.3.
On to `CN(C)C(=O)C1CN=C(c2cccnc2)S1` (racemic) [Compound 41, (R,S)-4,5-Dihydro-N,N-dimethyl-2-(3-pyridinyl)-1,3-thiazole-5-carboxamide], for which the pest or weed control at 500 g/ha in data set [1] worked out at 100%.
Consider `O=C(NCc1ncccn1)C1CN=C(c2cncnc2)S1` (racemic) [Compound 44, (R,S)-4,5-Dihydro-N-(pyrimidin-2-ylmethyl)-2-(5-pyrimidinyl)-1,3-thiazole-5-carboxamide], for which the pest or weed control at 500 g/ha in data set [1] was 80%. In addition, the chromatographic logP in the data set “physchem” (setting [3]) and in the data set “physchem” (setting [2]) was 0.9 in each case.
For `O=C(O)c1cn(-c2cccnc2)nn1` [1-(Pyridin-3-yl)-1H-1,2,3-triazole-4-carboxylic acid], the chromatographic logP in the data set “physchem” (setting [2]) was -0.03.
In the case of `O=C(O)c1cnc(-c2cccnc2)o1` [2-(Pyridin-3-yl)-1,3-oxazole-5-carboxylic acid], the chromatographic logP in the data set “physchem” (setting [2]) is -0.06.
With `O=C(O)c1csc(-c2cccnc2)n1` [2-(Pyridin-3-yl)-1,3-thiazole-4-carboxylic acid], the chromatographic logP in “physchem” (setting [2]) was 0.35.
For the molecule `O=C(O)c1cc(-c2ccc(Cl)nc2)ns1` [3-(6-Chloropyridin-3-yl)-1,2-thiazole-5-carboxylic acid], the chromatographic logP in “physchem” (setting [2]) was determined as 1.56.
Still for that read-out and setting: for `CC(F)(F)CNC(=O)c1cc(-c2ccc(Cl)nc2)ns1` [3-(6-Chloropyridin-3-yl)-N-(2,2-difluoropropyl)-1,2-thiazole-5-carboxamide] the value was 2.45; for `Cc1cc(-c2cccnc2)sc1C(=O)O` [3-Methyl-5-(pyridin-3-yl)thiophene-2-carboxylic acid], 1.96; for `Cc1nc(-c2cccnc2)oc1C(=O)O` [4-Methyl-2-(pyridin-3-yl)-1,3-oxazole-5-carboxylic acid], 0.56.
Same read-out and setting: the value for `O=C(O)c1coc(-c2cccnc2)c1` [5-(Pyridin-3-yl)furan-3-carboxylic acid] was 0.07.
On to `O=C(NCC(F)(F)F)n1cnc(-c2cccnc2)c1` [Compound 1, 4-(Pyridin-3-yl)-N-(2,2,2-trifluoroethyl)-1H-imidazole-1-carboxamide], for which the pest or weed control at 500 g/ha in data set [1] was determined as 100%. Also, the chromatographic logP in “physchem” (setting [3]) and in the data set “physchem” (setting [2]) was 0.65 each time.
For the molecule `CN(C)C(=O)c1cc(-c2cccnc2)no1` [Compound 2, N,N-Dimethyl-3-(pyridin-3-yl)-1,2-oxazole-5-carboxamide], the pest or weed control at 500 g/ha in data set [1] was 100%. Moreover, the chromatographic logP in the data set “physchem” (setting [3]) and in the data set “physchem” (setting [2]) was 0.78 throughout.
Turning to `O=C(NCc1ncccn1)c1cc(-c2cccnc2)no1` [Compound 3], the pest or weed control at 500 g/ha in data set [1] is 100%. For the same molecule, in the data set “physchem” (setting [3]), the chromatographic logP was 0.62.
Take `Cc1nc(-c2cccnc2)oc1C(=O)NCC(F)(F)F` [Compound 4, 4-Methyl-2-(pyridin-3-yl)-N-(2,2,2-trifluoroethyl)-1,3-oxazole-5-carboxamide]: the chromatographic logP in “physchem” (setting [3]) and in the data set “physchem” (setting [2]) was 1.46 throughout.
Regarding `Cc1cc(-c2cccnc2)sc1C(=O)NCC(F)(F)F` [Compound 5, 3-Methyl-5-(pyridin-3-yl)-N-(2,2,2-trifluoroethyl)thiophene-2-carboxamide], the chromatographic logP in “physchem” (setting [3]) and in the data set “physchem” (setting [2]) was 1.62 in each case.
Consider `CCN(CC)C(=O)c1ccc(-c2cccnc2)o1` [Compound 6], for which, in data set [1], the pest or weed control at 500 g/ha stood at 100%. For the same molecule, the chromatographic logP in the data set “physchem” (setting [3]) came out at 1.23.
`CN(C)C(=O)c1ccc(-c2cccnc2)o1` [Compound 7]: the pest or weed control at 500 g/ha in data set [1] was found to be 100%. For the same molecule, the chromatographic logP in the data set “physchem” (setting [3]) stood at 0.51.
The matching figures for `CC(NC(=O)c1ccc(-c2cccnc2)o1)C1CC1` (stereo not shown) [Compound 8]: 80% and 1.36.
For `O=C(c1ccc(-c2cccnc2)o1)N1CCCC1` [Compound 10], in “physchem” (setting [3]), the chromatographic logP is 1.06.
Turning to `CCN(C)C(=O)c1ccc(-c2cccnc2)o1` [Compound 11], in data set [1], the pest or weed control at 500 g/ha was determined as 100%. For the same molecule, the chromatographic logP in “physchem” (setting [3]) is 1.
As for `O=C(NCC(F)(F)F)c1coc(-c2cccnc2)c1` [Compound 12, 5-(Pyridin-3-yl)-N-(2,2,2-trifluoroethyl)furan-3-carboxamide], the pest or weed control at 500 g/ha in data set [1] turned out to be 90%. Further, the chromatographic logP in “physchem” (setting [3]) and in the data set “physchem” (setting [2]) was 1.13 in each case.
With `N#CCNC(=O)c1csc(-c2cccnc2)n1` [Compound 14], in data set [1], the pest or weed control at 500 g/ha was 80%. The chromatographic logP in “physchem” (setting [3]) was found to be 0.8.
As for `O=C(NCC1CCCCC1)c1ccc(-c2cccnc2)o1` [Compound 15], in “physchem” (setting [3]), the chromatographic logP came to 2.02.
Turning to `CN(CC#N)C(=O)c1ccc(-c2cccnc2)o1` [Compound 16], in data set [1], the pest or weed control at 500 g/ha was determined as 90%. Also, the chromatographic logP in “physchem” (setting [3]) was 0.72.
Regarding `O=C(NCc1cccs1)c1ccc(-c2cccnc2)o1` [Compound 17], in data set [1], the pest or weed control at 500 g/ha came to 100%. In the data set “physchem” (setting [3]), the chromatographic logP turned out to be 1.46.
On to `O=C(NCC=CCl)c1ccc(-c2cccnc2)o1` [Compound 18], for which the pest or weed control at 500 g/ha in data set [1] is 90%. For the same molecule, in the data set “physchem” (HPLC, reverse-phase C 18, acidic range pH 3.4, 55° C., table of compounds), the “logP (HCO2H)” value is recorded as 1.33. Also, the chromatographic logP in the data set “physchem” (setting [3]) is 1.27.
As for `C=C(Cl)CNC(=O)c1ccc(-c2cccnc2)o1` [Compound 19], in data set [1], the pest or weed control at 500 g/ha is 100%. The chromatographic logP in the data set “physchem” (setting [3]) is 1.28.
`C#CCNC(=O)c1ccc(-c2cccnc2)o1` [Compound 22]: the pest or weed control at 500 g/ha in data set [1] amounted to 100%. In addition, the chromatographic logP in “physchem” (setting [3]) was found to be 0.72.
For the molecule `CCN(CC)C(=O)c1oc(-c2cccnc2)cc1C` [Compound 24], the pest or weed control at 500 g/ha in data set [1] came to 90%. Moreover, the chromatographic logP in the data set “physchem” (setting [3]) came out at 1.58.
As to `O=C(NCC(F)(F)Br)c1ccc(-c2cccnc2)o1` [Compound 26], the chromatographic logP in “physchem” (setting [3]) was found to be 1.49.
In the case of `NC(=O)c1csc(-c2cccnc2)n1` [Compound 28], the pest or weed control at 500 g/ha in data set [1] was 100%.
As to `CSCCNC(=O)c1nnc(-c2cccnc2)o1` [Compound 34, N-(2-Methylmercaptoethyl)-5-(pyridin-3-yl)-1,3,4-oxazole-2-carboxamide], the chromatographic logP in “physchem” (setting [3]) and in “physchem” (setting [2]) was 1.13 in each case.
Consider `O=C(NCC(F)(F)F)c1cc(-c2cccnc2)on1` [Compound 39, 5-(Pyridin-3-yl)-N-(2,2,2-trifluoroethyl)-1,2-oxazole-3-carboxamide], for which the chromatographic logP in “physchem” (setting [3]) and in “physchem” (setting [2]) was 1.51 throughout.
Regarding `O=C(NCC(F)(F)F)c1cc(-c2cccnc2)no1` [Compound 40], in “physchem” (setting [3]), the chromatographic logP came out at 1.33.
For the molecule `O=C(NCC(F)(F)F)C1CN=C(c2cccnc2)S1` (stereo not shown) [Compound 42], in “physchem” (pH 3.4, logP (HCO2H)), the chromatographic logP stood at 0.54.
Turning to `CN(C)C(=O)C1CN=C(c2cncnc2)S1` (stereo not shown) [Compound 46], the chromatographic logP in “physchem” (setting [3]) was determined as 0.99.
On to `Cc1nc(C(=O)NCC(F)(F)F)sc1-c1cccnc1` [Compound 47, 4-Methyl-5-(3-pyridyl)-N-(2,2,2-trifluoroethyl)-1,3-thiazole-2-carboxamide], for which the chromatographic logP in the data set “physchem” (setting [3]) and in the data set “physchem” (setting [2]) was 1.74 in each case.
For `O=C(NCC(F)(F)F)n1cc(-c2cccnc2)cn1` [Compound 48], in the data set “physchem” (setting [2]), the chromatographic logP is 0.95.
As for `O=C(NCC(F)(F)F)c1nnc(-c2cccnc2)o1` [Compound 49, 5-(Pyridin-3-yl)-N-(2,2,2-trifluoroethyl)-1,3,4-oxadiazole-2-carboxamide], the chromatographic logP in the data set “physchem” (setting [3]) and in the data set “physchem” (setting [2]) was 1.21 in each case.
Turning to `Cc1c(C(=O)NCC(F)(F)F)ncn1-c1cccnc1` [Compound 50, 5-Methyl-1-(pyridin-3-yl)-N-(2,2,2-trifluoroethyl)-1H-imidazole-4-carboxamide], the chromatographic logP in “physchem” (setting [3]) and in “physchem” (setting [2]) was 1.28 each time.
Turning to `CCOC(=O)c1cn(-c2cccnc2)nn1` [Ethyl 1-(pyridin-3-yl)-1H-1,2,3-triazole-4-carboxylate], the chromatographic logP in the data set “physchem” (setting [2]) came to 1.15.
Take `CCOC(=O)c1cc(-c2ccc(Cl)nc2)ns1` [Ethyl 3-(6-chloropyridin-3-yl)-1,2-thiazole-5-carboxylate]: the chromatographic logP in the data set “physchem” (setting [2]) was determined as 3.33.
Same read-out and setting: for `CCOC(=O)c1nc(C)c(-c2cccnc2)s1` [Ethyl 4-methyl-5-(3-pyridinyl)-1,3-thiazole-2-carboxylate] the value was 0.45; for `CCOC(=O)c1nnc(-c2cccnc2)o1` [Ethyl 5-(pyridin-3-yl)-1,3,4-oxadiazole-2-carboxylate], 1.21; for `CCOC(=O)c1ncn(-c2cccnc2)c1C` [Ethyl 5-methyl-1-(pyridin-3-yl)-1H-imidazole-4-carboxylate], 1.03.
With `COC(=O)c1ccn(-c2cccnc2)c1` [Methyl 1-(pyridin-3-yl)pyrrole-3-carboxylate], the chromatographic logP in the data set “physchem” (setting [2]) is 1.26.
